Data from patent publication US12128035B2, “Activating pyruvate kinase R” (Novo Nordisk Health Care AG, priority 2021, dated 2024).

System: 2,3-DPG blood levels
Experiment: Phase 1 SAD/MAD: blood 2,3-DPG (LC-MS/MS) in healthy volunteers
Assay type: in vivo, human
Procedure: In this study, SAD/MAD cohorts are randomized (3 to 1) to receive Compound 1 or placebo (P). Compound 1 was evaluated first in 4 healthy SAD cohorts and 4 healthy MAD (14-day dosing period) cohorts. Based on the safety, and PK/PD profile from HS, Compound 1 is then evaluated in 1 SCD SAD cohort and 2 SCD MAD cohorts. Specifically, based on the safety and pharmacokinetic/pharmacodynamics (PK/PD) profile in healthy volunteer studies, Compound 1 is evaluated in patients (pts) with SCD, first in a single dose (SD or SAD) cohort and then in multiple-dose (MD or MAD) cohorts (14-day and 12-week). Safety assessments include AEs, vital signs, ECGs and laboratory parameters. PK/PD blood sampling was performed on Day 1 (SAD/MAD) and Day 14 (MAD) and up to 72 h after the last dose and at the end-of-study visit. PD parameters included 2,3-DPG, ATP, and p50 in all cohorts with additional PD studies (including oxygen scan) performed only in the SCD cohorts. PD parameters included 2,3-DPG, ATP, p50, RBC deformability with controlled deoxygenation and reoxygenation (Lorrca® oxygen scan) and varying osmolality (Lorrca® osmoscan)). To maintain study blind, pt identifiers were removed when needed.
In the SAD cohorts, the subjects' blood 2,3-DPG levels were measured periodically after dosing by a qualified LC-MS/MS method for the quantitation of 2,3-DPG in blood. Decreased 2,3-DPG blood levels were observed 6 hours following a single dose of Compound 1 at all dose levels (earlier timepoints were not collected). Maximum decreases in 2,3-DPG levels generally occurred ˜24 hours after the first dose with the reduction sustained ˜48-72 hr postdose. Table 15 reports the median percentage change in 2,3-DPG blood levels, relative to baseline, measured over time in healthy volunteers after a single dose of Compound 1 (200 mg, 400 mg, 700 mg, or 1000 mg) or placebo. Table 16 reports the mean percentage change in 2,3-DPG blood levels, relative to baseline, measured over time in healthy volunteers after a single dose of Compound 1 (200 mg, 400 mg, 700 mg, or 1000 mg). Accordingly, the median and mean reduction in the concentration of 2,3-DPG, relative to baseline, was at least about 30% at all dose levels tested 24 hours after administration of the single dose.
In the MAD cohorts, the subjects' blood 2,3-DPG levels were measured periodically after dosing by a qualified LC-MS/MS method for the quantitation of 2,3-DPG in blood. […] Table 18B reports the mean percentage change in 2,3-DPG blood levels, relative to baseline, measured over time after the first dose on days 1 and 14 in healthy volunteers who received daily doses of Compound 1 (100 mg BID, 200 mg BID, 300 mg BID, or 400 mg QD) for 14 days. Accordingly, the median and mean reduction in the concentration of 2,3-DPG, relative to baseline, was at least about 25% at all dose levels tested 24 hours after administration of the first dose on day 1 and at least about 40% at all dose levels tested 24 hours after administration of the first dose on day 14.
The following procedures are employed for the analysis of ATP and 2,3-DPG in human whole blood K2EDTA using a protein precipitation extraction procedure and analysis by LC-MS/MS.
The following procedures are used for sample extraction prior to analysis via LC-MS/MS. 15.0 μL of the calibration standards, quality controls, matrix blanks, and samples are aliquoted into a 96-well plate. 50.0 μL of the internal standard spiking solution is added to all samples on the plate, with the exception of the matrix blank samples; 50.0 μL of water is added to the matrix blank samples. Subsequently, 150 μL of water is added to all samples on the plate. The plate is then covered and agitated by vortex at high speed for ten minutes, after which 750 μL of methanol is added to all samples on the plate. The plate is covered and agitated by vortex for approximately 1 minute. The plate is then centrifuged at approximately 3500 RPM at approximately 4° C. for five minutes. […]

[1] = HV 100 mg BID, Day 1, 0 h after first daily dose
[2] = HV 100 mg BID, Day 1, 6 h after first daily dose
[3] = HV 100 mg BID, Day 1, 8 h after first daily dose
[4] = HV 100 mg BID, Day 1, 12 h after first daily dose
[5] = HV 100 mg BID, Day 1, 16 h after first daily dose
[6] = HV 100 mg BID, Day 1, 24 h after first daily dose
[7] = HV 100 mg BID, Day 14, 0 h after first daily dose
[8] = HV 100 mg BID, Day 14, 6 h after first daily dose
[9] = HV 100 mg BID, Day 14, 8 h after first daily dose
[10] = HV 100 mg BID, Day 14, 12 h after first daily dose
[11] = HV 100 mg BID, Day 14, 16 h after first daily dose
[12] = HV 100 mg BID, Day 14, 24 h after first daily dose
[13] = HV 100 mg BID, Day 14, 48 h after first daily dose
[14] = HV 100 mg BID, Day 14, 72 h after first daily dose
[15] = HV 200 mg BID, Day 1, 0 h after first daily dose
[16] = HV 200 mg BID, Day 1, 6 h after first daily dose
[17] = HV 200 mg BID, Day 1, 8 h after first daily dose
[18] = HV 200 mg BID, Day 1, 12 h after first daily dose
[19] = HV 200 mg BID, Day 1, 16 h after first daily dose
[20] = HV 200 mg BID, Day 1, 24 h after first daily dose
[21] = HV 200 mg BID, Day 14, 0 h after first daily dose
[22] = HV 200 mg BID, Day 14, 6 h after first daily dose
[23] = HV 200 mg BID, Day 14, 8 h after first daily dose
[24] = HV 200 mg BID, Day 14, 12 h after first daily dose
[25] = HV 200 mg BID, Day 14, 16 h after first daily dose
[26] = HV 200 mg BID, Day 14, 24 h after first daily dose
[27] = HV 200 mg BID, Day 14, 48 h after first daily dose
[28] = HV 200 mg BID, Day 14, 72 h after first daily dose
[29] = HV 300 mg BID, Day 1, 0 h after first daily dose
[30] = HV 300 mg BID, Day 1, 6 h after first daily dose
[31] = HV 300 mg BID, Day 1, 8 h after first daily dose
[32] = HV 300 mg BID, Day 1, 12 h after first daily dose
[33] = HV 300 mg BID, Day 1, 16 h after first daily dose
[34] = HV 300 mg BID, Day 1, 24 h after first daily dose
[35] = HV 300 mg BID, Day 14, 0 h after first daily dose
[36] = HV 300 mg BID, Day 14, 8 h after first daily dose
[37] = HV 300 mg BID, Day 14, 12 h after first daily dose
[38] = HV 300 mg BID, Day 14, 16 h after first daily dose
[39] = HV 300 mg BID, Day 14, 24 h after first daily dose
[40] = HV 300 mg BID, Day 14, 48 h after first daily dose
[41] = HV 300 mg BID, Day 14, 72 h after first daily dose
[42] = HV 400 mg QD, Day 1, 0 h after first daily dose
[43] = HV 400 mg QD, Day 1, 8 h after first daily dose
[44] = HV 400 mg QD, Day 1, 12 h after first daily dose
[45] = HV 400 mg QD, Day 1, 16 h after first daily dose
[46] = HV 400 mg QD, Day 1, 24 h after first daily dose
[47] = HV 400 mg QD, Day 14, 0 h after first daily dose

Compound: O=C([C@H](CO)c1ccccc1)N1CC2=C(C1)CN(S(=O)(=O)c1cnc3c(c1)OCCO3)C2 (single isomer, unassigned) [Compound 1]
- Mean Percentage Change in 2,3-DPG Levels [1]: 0%
- Median Percentage Change in 2,3-DPG Levels [1]: 0.0%
- Mean Percentage Change in 2,3-DPG Levels [2]: −15%
- Median Percentage Change in 2,3-DPG Levels [2]: −16%
- Mean Percentage Change in 2,3-DPG Levels [3]: −13%
- Median Percentage Change in 2,3-DPG Levels [3]: −12%
- Mean Percentage Change in 2,3-DPG Levels [4]: −18%
- Median Percentage Change in 2,3-DPG Levels [4]: −18%
- Mean Percentage Change in 2,3-DPG Levels [5]: −20%
- Median Percentage Change in 2,3-DPG Levels [5]: −18%
- Mean Percentage Change in 2,3-DPG Levels [6]: −29%
- Median Percentage Change in 2,3-DPG Levels [6]: −28%
- Mean Percentage Change in 2,3-DPG Levels [7]: −43%
- Median Percentage Change in 2,3-DPG Levels [7]: −42.0%
- Mean Percentage Change in 2,3-DPG Levels [8]: −44%
- Median Percentage Change in 2,3-DPG Levels [8]: −44%
- Mean Percentage Change in 2,3-DPG Levels [9]: −45%
- Median Percentage Change in 2,3-DPG Levels [9]: −45%
- Mean Percentage Change in 2,3-DPG Levels [10]: −44%
- Median Percentage Change in 2,3-DPG Levels [10]: −44%
- Mean Percentage Change in 2,3-DPG Levels [11]: −42%
- Median Percentage Change in 2,3-DPG Levels [11]: −44%
- Mean Percentage Change in 2,3-DPG Levels [12]: −43%
- Median Percentage Change in 2,3-DPG Levels [12]: −44%
- Mean Percentage Change in 2,3-DPG Levels [13]: −32%
- Median Percentage Change in 2,3-DPG Levels [13]: −35%
- Mean Percentage Change in 2,3-DPG Levels [14]: −22%
- Median Percentage Change in 2,3-DPG Levels [14]: −20%
- Mean Percentage Change in 2,3-DPG Levels [15]: 0%
- Median Percentage Change in 2,3-DPG Levels [15]: 0.0%
- Mean Percentage Change in 2,3-DPG Levels [16]: −16%
- Median Percentage Change in 2,3-DPG Levels [16]: −13%
- Mean Percentage Change in 2,3-DPG Levels [17]: −19%
- Median Percentage Change in 2,3-DPG Levels [17]: −22%
- Mean Percentage Change in 2,3-DPG Levels [18]: −22%
- Median Percentage Change in 2,3-DPG Levels [18]: −23%
- Mean Percentage Change in 2,3-DPG Levels [19]: −33%
- Median Percentage Change in 2,3-DPG Levels [19]: −34%
- Mean Percentage Change in 2,3-DPG Levels [20]: −45%
- Median Percentage Change in 2,3-DPG Levels [20]: −48%
- Mean Percentage Change in 2,3-DPG Levels [21]: −49%
- Median Percentage Change in 2,3-DPG Levels [21]: −49%
- Mean Percentage Change in 2,3-DPG Levels [22]: −49%
- Median Percentage Change in 2,3-DPG Levels [22]: −49%
- Mean Percentage Change in 2,3-DPG Levels [23]: −47%
- Median Percentage Change in 2,3-DPG Levels [23]: −44%
- Mean Percentage Change in 2,3-DPG Levels [24]: −43%
- Median Percentage Change in 2,3-DPG Levels [24]: −42%
- Mean Percentage Change in 2,3-DPG Levels [25]: −49%
- Median Percentage Change in 2,3-DPG Levels [25]: −43%
- Mean Percentage Change in 2,3-DPG Levels [26]: −47%
- Median Percentage Change in 2,3-DPG Levels [26]: −48%
- Mean Percentage Change in 2,3-DPG Levels [27]: −40%
- Median Percentage Change in 2,3-DPG Levels [27]: −39%
- Mean Percentage Change in 2,3-DPG Levels [28]: −23%
- Median Percentage Change in 2,3-DPG Levels [28]: −20%
- Mean Percentage Change in 2,3-DPG Levels [29]: 0%
- Median Percentage Change in 2,3-DPG Levels [29]: 0.0%
- Mean Percentage Change in 2,3-DPG Levels [30]: −20%
- Median Percentage Change in 2,3-DPG Levels [30]: −19%
- Mean Percentage Change in 2,3-DPG Levels [31]: −22%
- Median Percentage Change in 2,3-DPG Levels [31]: −24%
- Mean Percentage Change in 2,3-DPG Levels [32]: −31%
- Median Percentage Change in 2,3-DPG Levels [32]: −32%
- Mean Percentage Change in 2,3-DPG Levels [33]: −39%
- Median Percentage Change in 2,3-DPG Levels [33]: −41%
- Mean Percentage Change in 2,3-DPG Levels [34]: −47%
- Median Percentage Change in 2,3-DPG Levels [34]: −51%
- Mean Percentage Change in 2,3-DPG Levels [35]: −57%
- Median Percentage Change in 2,3-DPG Levels [35]: −59%
- Mean Percentage Change in 2,3-DPG Levels (HV 300 mg BID, Day 14, 6 h after first daily dose): −56%
- Mean Percentage Change in 2,3-DPG Levels [36]: −55%
- Median Percentage Change in 2,3-DPG Levels [36]: −55%
- Mean Percentage Change in 2,3-DPG Levels [37]: −54%
- Median Percentage Change in 2,3-DPG Levels [37]: −55%
- Mean Percentage Change in 2,3-DPG Levels [38]: −53%
- Median Percentage Change in 2,3-DPG Levels [38]: −52%
- Mean Percentage Change in 2,3-DPG Levels [39]: −52%
- Median Percentage Change in 2,3-DPG Levels [39]: −53%
- Mean Percentage Change in 2,3-DPG Levels [40]: −43%
- Median Percentage Change in 2,3-DPG Levels [40]: −45%
- Mean Percentage Change in 2,3-DPG Levels [41]: −34%
- Median Percentage Change in 2,3-DPG Levels [41]: −33%
- Mean Percentage Change in 2,3-DPG Levels [42]: 0%
- Median Percentage Change in 2,3-DPG Levels [42]: 0.0%
- Mean Percentage Change in 2,3-DPG Levels (HV 400 mg QD, Day 1, 6 h after first daily dose): −26%
- Mean Percentage Change in 2,3-DPG Levels [43]: −29%
- Median Percentage Change in 2,3-DPG Levels [43]: −27%
- Mean Percentage Change in 2,3-DPG Levels [44]: −38%
- Median Percentage Change in 2,3-DPG Levels [44]: −38%
- Mean Percentage Change in 2,3-DPG Levels [45]: −42%
- Median Percentage Change in 2,3-DPG Levels [45]: −41%
- Mean Percentage Change in 2,3-DPG Levels [46]: −48%
- Median Percentage Change in 2,3-DPG Levels [46]: −48%
- Mean Percentage Change in 2,3-DPG Levels [47]: −52%
- Median Percentage Change in 2,3-DPG Levels [47]: −51%
- Mean Percentage Change in 2,3-DPG Levels (HV 400 mg QD, Day 14, 6 h after first daily dose): −54%
